# Patent US7030087B2, “Synthetic approach to designed chemical structures” (priority 1996, dated 2006)
# What was measured:
# [1] = system: ICAM-1; experiment: ICAM-1 expression on endothelial cells (immunofluorescence, FACScan); assay type: cell-based, human
# Protocol: In a first series of experiments, PF4 and βpep peptides were tested for their ability to prevent bFGF (fibroblast growth factor) mediated downregulation of ICAM-1. […] Simultaneously 100 μg/ml of each PF4, βpep-14, βpep-16, or medium was added. Mean ICAM-1 fluorescence intensity values were determined.
# (§1) Since the in vivo situation of tumor associated EC involves the low expression or even absence of ICAM-1, the next set of experiments aimed to study the ability to reinduce ICAM-I expression after bFBF preincubation. […] In these experiments, HUVEC were pretreated for 3 days with bFGF, subsequently PF4 was added for 3 days and, where indicated in the last 16 hours of culture 4 ng/ml TNFα was added. Human umbilical vein derived endothelial cells (HUVEC) were harvested from normal human umbilical cords by perfusion with 0.125% trypsin/EDTA as described previously. Cells were cultured in fibronectin (FN) coated tissue culture flasks in culture medium (RPMI-1640 with 20% human serum (HS), supplemented with 2 mM glutamine and 100 U/ml penicillin and 0.1 mg/ml streptomycin). Immunofluorescence using indirect PE-conjugated reagents required three separate incubations. 1×10^5 EC were fixed for 1 hour in 1% paraformaldehyde, resuspended in 20 μl appropriately diluted Mab and incubated for 1 hour on ice. Subsequently, cells were washed two times in PBS/BSA (0.1%) and incubated for another 30 minutes with biotinylated rabbit-anti-mouse Ig (Dako, Glostrup, Denmark). After another 2 washings, cells were incubated with streptavidin-phycoerythrin conjugate (Dako). Stained cells were analyzed on a FACScan flowcytometer. Data analysis was performed using PCLysys software (Becton Dickinson, Mountain View, Calif.). Statistical significance of observed differences was determined using the Student's t-test.
# The energy of EC to stimulation with inflammatory cytokines was the subject of a next series of experiments. For these experiments, HUVEC (human vascular endothelial cells) were pretreated with 10 ng/ml bFGF for 3 days. Subsequently, cells are subcultured for 3 days with […] in the presence of PF4. For the last 16 hours of the culture 4 ng/ml TNFα was added to induce upregulation of ICAM-1. […] The regulation of ICAM-1 at the protein level was confirmed in Northern blot analysis for detection of ICAM-1 message. In these experiments, HUVEC were cultured for 3 days with bFGF and treated for the last 4 and 24 hours with PF4 (100 μg/ml). TNFα was added 2 hours before isolation of RNA. RNA from a subconfluent EC cultures (75 cm^2 Petri-dishes) incubated with bFGF for different time-points was isolated using an RNA-zol kit (Campro Scientific, Houston, Tex.). Total RNA (10 μg) for each sample was separated in a 0.8% formaldehyde-denaturing gel, transferred to nitrocellulose (Hybond N+, Amersham International, Amersham, UK) and hybridized to a ^32P-labelled 1.9 Kb c-DNA probe, containing the functional sequence of the human ICAM-1 gene (a gift from Dr. B. Seed). Membranes were washed at a high stringency in 0.2×SSC, 0.1% SDS at 50° C. for 1 hour. Filters were exposed to X-ray films (Kodak X-omat, Eastman Kodak Company, Rochester, N.Y.) using an intensifying screen at −80° C. for not less than 12 hr. Autoradiograms were subjected to scanning using a laser densitometer (Model GS670, Bio-Rad, Hercules, Calif.) and data were analysed with the Molecular Analyst PC™ software. The intensity of the major ICAM-1 mRNA transcript was normalized with respect to actin mRNA expression used as a control.
# [2] = system: P. aeruginosa; experiment: Bactericidal activity assay; assay type: cell-based, Pseudomonas aeruginosa type 1
# Method in brief: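 Log-phase P. aeruginosa type 1 (smooth clinical isolate) was grown in brain heart infusion broth, washed, and diluted 1:10 from about 3×10^8 CFU/ml into 0.08M citrate phosphate buffer at pH 5.6 or pH 7.0. Peptides were tested from about […] to 4.1×10^−9M, with LD50 derived from dose response by linear regression.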
# [3] = system: EC (endothelial cells); experiment: EC proliferation, 3[H]thymidine incorporation assay; assay type: cell-based
# Protocol: as §1
# EC proliferation was measured using a ^3[H]thymidine incorporation assay. EC were seeded in flatbottomed 96-well tissue culture plates (5000 cells/well) and grown for 3 days, in culture medium. In some cultures the proliferation of EC was enhanced by incubation with 10 ng/ml bFGF. During the list 6 hours of the assay, the culture was pulsed with 0.5 μCi [methyl-^3H]thymidine/well. Results are expressed as the arithmetic mean counts per minute (cpm) of triplicate cultures.
substance,measurement,setting,value
platelet factor 4 [PF4],bFGF mediated downregulation of ICAM-1 (in words),"[1]; 10 ng/ml bFGF for 3 days, 100 μg/ml added simultaneously",did not result in the loss of ICAM-1 expression
same,expression of ICAM-1 (in words),"[1]; 100 μg/ml, without bFGF",enhanced the expression of ICAM-1
same,decreased inflammatory response (TNFα upregulation of ICAM-1) of angiogenic stimulated EC (in words),"[1]; HUVEC 3 days 10 ng/ml bFGF, then 3 days with bFGF and test agent, 4 ng/ml TNFα last 16 hours",overcome
same,reinduction of ICAM-1 expression after bFGF preincubation (in words),"[1]; HUVEC pretreated 3 days with bFGF, then 100 μg/ml for 3 days in the presence of bFGF",reinduction of ICAM-1
same,"Bactericidal Activity, % killing","[2]; 1.2 × 10^−7 M Peptide, 5 × 105 P. aeruginosa",0%
same,"Bactericidal Activity, % killing at the effective dose",[2]; at the Ed for the same peptide,19%
same,"Bactericidal Activity, Ed, Effective M dose",[2]; dose at which the % in brackets was found,1.5 µM
same,(3H)-thymidine incorporation,"[3]; expt 1, 1 μg/ml, 10 ng/ml bFGF, medium 28815 ± 1007",28782 ± 815 cpm
same,(3H)-thymidine incorporation,"[3]; expt 1, 1 μg/ml, no bFGF, medium 4044 ± 206",4656 ± 456 cpm
same,(3H)-thymidine incorporation,"[3]; expt 1, 10 μg/ml, 10 ng/ml bFGF, medium 28815 ± 1007",23868 ± 402 cpm
same,(3H)-thymidine incorporation,"[3]; expt 1, 10 μg/ml, no bFGF, medium 4044 ± 206",4066 ± 351 cpm
same,(3H)-thymidine incorporation,"[3]; expt 1, 100 μg/ml, 10 ng/ml bFGF, medium 28815 ± 1007",4655 ± 421 cpm
same,(3H)-thymidine incorporation,"[3]; expt 1, 100 μg/ml, no bFGF, medium 4044 ± 206",1651 ± 172 cpm
same,(3H)-thymidine incorporation,"[3]; expt 2 (second, r19), 1 μg/ml, 10 ng/ml bFGF, medium 52808 ± 4092",43524 ± 5318 cpm
same,(3H)-thymidine incorporation,"[3]; expt 2 (second, r19), 1 μg/ml, no bFGF, medium 6780 ± 713",6171 ± 1227 cpm
same,(3H)-thymidine incorporation,"[3]; expt 2 (second, r19), 10 μg/ml, 10 ng/ml bFGF, medium 52808 ± 4092",8337 ± 704 cpm
same,(3H)-thymidine incorporation,"[3]; expt 2 (second, r19), 10 μg/ml, no bFGF, medium 6780 ± 713",3547 ± 317 cpm
same,(3H)-thymidine incorporation,"[3]; expt 2 (second, r19), 100 μg/ml, 10 ng/ml bFGF, medium 52808 ± 4092",1654 ± 375 cpm
same,(3H)-thymidine incorporation,"[3]; expt 2 (second, r19), 100 μg/ml, no bFGF, medium 6780 ± 713",947 ± 170 cpm
